Patent publication US8946215B2, “Hydroxy-substituted imidazo[1,2-a]pyridinecarboxamides and their use” (Bayer Pharma Aktiengesellschaft, priority 2012, dated 2015)
Structures can show the parent of a compound that is named as a salt.

Molecular target: T1, recombinant guanylate cyclase reporter cell line (Rattus norvegicus, UniProt P19686+P20595)
T1 construct: expressed in transfected cells
T1 sequence (P20595 1-619): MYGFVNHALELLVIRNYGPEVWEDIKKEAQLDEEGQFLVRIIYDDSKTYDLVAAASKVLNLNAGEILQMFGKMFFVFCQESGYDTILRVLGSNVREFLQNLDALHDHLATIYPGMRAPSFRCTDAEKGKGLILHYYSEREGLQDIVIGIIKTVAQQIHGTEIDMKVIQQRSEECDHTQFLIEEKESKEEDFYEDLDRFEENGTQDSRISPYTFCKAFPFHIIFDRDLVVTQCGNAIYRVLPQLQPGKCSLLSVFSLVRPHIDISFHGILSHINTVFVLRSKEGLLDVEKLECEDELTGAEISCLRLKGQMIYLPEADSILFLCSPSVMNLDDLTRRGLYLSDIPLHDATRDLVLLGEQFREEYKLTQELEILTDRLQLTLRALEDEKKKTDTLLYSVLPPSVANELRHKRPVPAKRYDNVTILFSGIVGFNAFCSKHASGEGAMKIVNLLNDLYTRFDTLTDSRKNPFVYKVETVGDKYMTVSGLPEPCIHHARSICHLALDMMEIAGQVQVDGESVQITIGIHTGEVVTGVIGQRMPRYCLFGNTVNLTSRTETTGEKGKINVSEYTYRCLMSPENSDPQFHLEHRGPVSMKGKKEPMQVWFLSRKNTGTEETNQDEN
T1 sequence (P19686 1-690): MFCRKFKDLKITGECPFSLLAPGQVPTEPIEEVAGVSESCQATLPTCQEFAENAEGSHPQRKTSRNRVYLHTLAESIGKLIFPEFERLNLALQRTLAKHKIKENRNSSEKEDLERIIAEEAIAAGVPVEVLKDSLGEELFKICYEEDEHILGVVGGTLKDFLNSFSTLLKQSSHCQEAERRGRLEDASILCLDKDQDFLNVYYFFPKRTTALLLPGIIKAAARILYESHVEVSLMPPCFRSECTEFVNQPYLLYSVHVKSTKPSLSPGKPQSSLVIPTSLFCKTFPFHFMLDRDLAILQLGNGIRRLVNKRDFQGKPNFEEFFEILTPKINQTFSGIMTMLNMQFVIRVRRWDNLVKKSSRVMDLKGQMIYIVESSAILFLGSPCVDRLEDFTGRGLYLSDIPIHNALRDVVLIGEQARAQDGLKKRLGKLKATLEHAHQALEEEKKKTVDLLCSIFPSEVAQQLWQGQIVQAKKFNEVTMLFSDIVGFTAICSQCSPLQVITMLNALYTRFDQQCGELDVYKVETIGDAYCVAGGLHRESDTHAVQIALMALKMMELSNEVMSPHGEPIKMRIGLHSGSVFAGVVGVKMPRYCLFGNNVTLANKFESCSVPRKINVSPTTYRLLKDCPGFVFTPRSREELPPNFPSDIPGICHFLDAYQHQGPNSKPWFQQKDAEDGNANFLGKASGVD
Experiment: Action on recombinant guanylate cyclase reporter cell line
Assay type: cell-based
Conditions: in some cases mean values obtained from individual determinations
How it was run: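 Cell-based reporter assay with recombinant guanylate cyclase expressed in a reporter cell line, per a published method. Activity reported as minimal effective concentration (MEC), in some cases as the mean of individual determinations.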

Compound | MEC (minimal effective concentration)
CCc1nc2c(OCC3CCCCC3)cccn2c1C(=O)N[C@H](C)CO [Example 55, 8-(Cyclohexylmethoxy)-2-ethyl-N-[(2R)-1-hydroxypropan-2-yl]imidazo[1,2-a]pyridine-3-carboxamide formic acid salt] | 0.1 µM
C[C@@H](CO)NC(=O)c1c(C(F)(F)F)nc2c(OCC3CCCCC3)cccn12 [Example 56, 8-(cyclohexylmethoxy)-N-[(2S)-1-hydroxypropan-2-yl]-2-(trifluoromethyl)imidazo[1,2-a]pyridine-3-carboxamide] | 1.0 µM
CCCc1nc2c(OCC3CCCCC3)cccn2c1C(=O)N[C@@H](C)CO [Example 57, 8-(cyclohexylmethoxy)-N-[(2S)-1-hydroxypropan-2-yl]-2-propylimidazo[1,2-a]-pyridine-3-carboxamide] | 1.0 µM
CCc1nc2c(OCC3CCC3)cccn2c1C(=O)N[C@@H](C)CO [Example 58, 8-(cyclobutylmethoxy)-2-ethyl-N-[(2S)-1-hydroxypropan-2-yl]imidazo[1,2-a]pyridine-3-carboxamide formic acid salt] | 3.0 µM
C[C@@H](CO)NC(=O)c1cnc2c(OCC3CCCCC3)cccn12 [Example 59, 8-(cyclohexylmethoxy)-N-[(2S)-1-hydroxypropan-2-yl]imidazo[1,2-a]pyridine-3-carboxamide] | 3.0 µM
CCCC[C@H](CO)NC(=O)c1c(C)nc2c(OCc3c(F)cccc3F)cc(CC)cn12 [Example 60, 8-[(2,6-difluorobenzyl)oxy]-6-ethyl-N-[(2R)-1-hydroxyhexan-2-yl]-2-methylimidazo[1,2-a]pyridine-3-carboxamide] | 0.1 µM
CCCC[C@H](CO)NC(=O)c1c(C)nc2c(OCc3c(F)cccc3F)cc(C3CC3)cn12 [Example 61, 6-cyclopropyl-8-[(2,6-difluorobenzyl)oxy]-N-[(2R)-1-hydroxyhexan-2-yl]-2-methylimidazo[1,2-a]pyridine-3-carboxamide] | 1.0 µM
CCCC[C@H](CO)NC(=O)c1cnc2c(OCc3c(F)cccc3F)cccn12 [Example 62, 8-[(2,6-difluorobenzyl)oxy]-N-[(2R)-1-hydroxyhexan-2-yl]imidazo[1,2-a]pyridine-3-carboxamide] | 0.3 µM
CCCC[C@H](CO)NC(=O)c1c(C)nc2c(OCc3c(F)cccc3F)cc(N3CCOCC3)cn12 [Example 63, 8-[(2,6-difluorobenzyl)oxy]-N-[(2R)-1-hydroxyhexan-2-yl]-2-methyl-6-(morpholin-4-yl)imidazo[1,2-a]pyridine-3-carboxamide] | 3.0 µM
CCCC[C@H](CO)NC(=O)c1c(C)nc2c(OCc3c(F)cccc3F)cc(N3CCCC3)cn12 [Example 64, 8-[(2,6-difluorobenzyl)oxy]-N-[(2R)-1-hydroxyhexan-2-yl]-2-methyl-6-(pyrrolidin-1-yl)imidazo[1,2-a]pyridine-3-carboxamide] | 3.0 µM
CCCC[C@H](CO)NC(=O)c1c(C)nc2c(OCc3c(F)cccc3F)cc(Br)cn12 [Example 65, 6-bromo-8-[(2,6-difluorobenzyl)oxy]-N-[(2R)-1-hydroxyhexan-2-yl]-2-methylimidazo[1,2-a]pyridine-3-carboxamide] | 0.03 µM
CCC[C@H](CO)NC(=O)c1c(C)nc2c(OCC3CCCCC3)cccn12 [Example 67, 8-(cyclohexylmethoxy)-N-[(2R)-1-hydroxypentan-2-yl]-2-methylimidazo[1,2-a]pyridine-3-carboxamide] | 0.03 µM
Cc1nc2c(OCC3CCCCC3)cccn2c1C(=O)NC[C@H](O)CO [Example 68, 8-(cyclohexylmethoxy)-N-[(2S)-2,3-dihydroxypropyl]-2-methylimidazo[1,2-a]pyridine-3-carboxamide] | 0.03 µM
CC[C@H](CO)NC(=O)c1c(C)nc2c(OCC3CCCCC3)cccn12 [Example 72, 8-(cyclohexylmethoxy)-N-[(2R)-1-hydroxybutan-2-yl]-2-methylimidazo[1,2-a]pyridine-3-carboxamide] | 0.1 µM
Cc1nc2c(OCC3CCCCC3)cccn2c1C(=O)NCCCCO [Example 74, 8-(cyclohexylmethoxy)-N-(4-hydroxybutyl)-2-methylimidazo[1,2-a]pyridine-3-carboxamide] | 0.2 µM
Cc1nc2c(OCC3CCCCC3)cccn2c1C(=O)N[C@@H](C)CO [Example 75, 8-(cyclohexylmethoxy)-N-[(2S)-1-hydroxypropan-2-yl]-2-methylimidazo[1,2-a]pyridine-3-carboxamide] | 0.22 µM
Cc1nc2c(OCC3CCCCC3)cccn2c1C(=O)NCCO [Example 76, 8-(cyclohexylmethoxy)-N-(2-hydroxyethyl)-2-methylimidazo[1,2-a]pyridine-3-carboxamide formate] | 0.3 µM
Cc1nc2c(OCC3CCCCC3)cccn2c1C(=O)NC(CO)(CO)CO [Example 77, 8-(cyclohexylmethoxy)-N-[1,3-dihydroxy-2-(hydroxymethyl)propan-2-yl]-2-methylimidazo[1,2-a]pyridine-3-carboxamide formate] | 0.3 µM
COCC(O)CNC(=O)c1c(C)nc2c(OCC3CCCCC3)cccn12 (stereo not shown) [Example 79, 8-(cyclohexylmethoxy)-N-(2-hydroxy-3-methoxypropyl)-2-methylimidazo[1,2-a]pyridine-3-carboxamide] | 0.3 µM
Cc1nc2c(OCC3CCCCC3)cccn2c1C(=O)NC[C@@H](O)CO [Example 80, 8-(cyclohexylmethoxy)-N-[(2R)-2,3-dihydroxypropyl]-2-methylimidazo[1,2-a]pyridine-3-carboxamide] | 0.3 µM
Cc1nc2c(OCC3CCCCC3)cccn2c1C(=O)NCCCO [Example 82, 8-(cyclohexylmethoxy)-N-(3-hydroxypropyl)-2-methylimidazo[1,2-a]pyridine-3-carboxamide] | 0.3 µM
Cc1nc2c(OCC3CCCCC3)cccn2c1C(=O)NC1CCCC1O (stereo not shown) [Example 83, 8-(cyclohexylmethoxy)-N-(2-hydroxycyclopentyl)-2-methylimidazo[1,2-a]pyridine-3-carboxamide] | 0.3 µM
Cc1nc2c(OCC3CCCCC3)cccn2c1C(=O)NC(C)CO (stereo not shown) [Example 84, 8-(cyclohexylmethoxy)-N-(1-hydroxypropan-2-yl)-2-methylimidazo[1,2-a]pyridine-3-carboxamide] | 0.3 µM
Cc1nc2c(OCC3CCCCC3)cccn2c1C(=O)NC(CO)CO [Example 85, 8-(cyclohexylmethoxy)-N-(1,3-dihydroxypropan-2-yl)-2-methylimidazo[1,2-a]pyridine-3-carboxamide] | 0.38 µM
Cc1nc2c(OCC3CCCCC3)cccn2c1C(=O)NCCOCCO [Example 86, 8-(cyclohexylmethoxy)-N-[2-(2-hydroxyethoxy)ethyl]-2-methylimidazo[1,2-a]-pyridine-3-carboxamide] | 0.65 µM
Cc1nc2c(OCC3CCCCC3)cccn2c1C(=O)NC(C)(C)C(C)O (stereo not shown) [Example 87, 8-(cyclohexylmethoxy)-N-(3-hydroxy-2-methylbutan-2-yl)-2-methylimidazo[1,2-a]pyridine-3-carboxamide] | 1.0 µM
CC[C@@H](CO)NC(=O)c1c(C)nc2c(OCC3CCCCC3)cccn12 [Example 88, 8-(cyclohexylmethoxy)-N-[(2S)-1-hydroxybutan-2-yl]-2-methylimidazo[1,2-a]pyridine-3-carboxamide] | 1.0 µM
CCC[C@@H](CO)NC(=O)c1c(C)nc2c(OCC3CCCCC3)cccn12 [Example 89, 8-(cyclohexylmethoxy)-N-[(2S)-1-hydroxypentan-2-yl]-2-methylimidazo[1,2-a]pyridine-3-carboxamide] | 1.0 µM
